Experimental data taken from ChEMBL document CHEMBL5579884, “Cellular, Structural Basis, and Recent Progress for Targeting Murine Double Minute X (MDMX) in Tumors” (J Med Chem, 2024).
pIC50, pKd, pKi: −log10 of the molar value.

Assays:
[1] = molecular target: T1, E3 ubiquitin-protein ligase Mdm2 (Homo sapiens, UniProt Q00987); test: Inhibition of MDM2 (unknown origin)
[2] = Antiproliferative activity against human BEAS-2B cells assessed as reduction in cell growth
HCT-116 [3] = test: Antiproliferative activity against human HCT-116 cells assessed as reduction in cell growth
SH-SY5Y = test: Antiproliferative activity against human SH-SY5Y cells assessed as reduction in cell growth
L02 = test: Antiproliferative activity against human L02 cells assessed as reduction in cell growth
SJSA-1 = test: Antiproliferative activity against human SJSA-1 cells assessed as reduction in cell growth
[4] = tested on: KATO III stomach cancer cell line; test: Cytotoxicity against human KATO III stomach cancer cell line assessed as reduction in cell growth incubated for 48 hrs by MTT assay
BT-549 = test: Cytotoxicity against human BT-549 cells assessed as cell growth inhibition
ZR-75-1 = test: Cytotoxicity against human ZR-75-1 cells assessed as reduction in cell growth
MCF7 [5] = test: Cytotoxicity against human MCF7 cells assessed as reduction in cell growth
BGC-823 = test: Cytotoxicity against human BGC-823 cells assessed as reduction in cell growth incubated for 48 hrs by MTT assay; settings: BGC-823, 48 h
Prostatic carcinoma cell = test: Cytotoxicity against human Prostatic carcinoma cell
BT-474 = test: Cytotoxicity against human BT-474 cells assessed as cell growth inhibition
SGC-7901 = test: Cytotoxicity against human SGC-7901 cells assessed as reduction in cell growth incubated for 48 hrs by MTT assay; settings: SGC-7901, 48 h
ZR-75-30 = test: Cytotoxicity against human ZR-75-30 cells assessed as reduction in cell growth
MDA-MB-175-VII = test: cells; settings: Homo sapiens
Description: Cytotoxicity against human MDA-MB-175-VII cells assessed as reduction in cell growth

Hs-578T = test: cells; settings: Homo sapiens
Description: Cytotoxicity against human Hs-578T cells assessed as cell growth inhibition

HGC-27 = test: Cytotoxicity against human HGC-27 cells assessed as reduction in cell growth incubated for 48 hrs by MTT assay; settings: HGC-27, 48 h
NCI-N87 = test: Cytotoxicity against human NCI-N87 cells assessed as reduction in cell growth incubated for 48 hrs by MTT assay; settings: NCI-N87, 48 h
MKN-45 = test: Cytotoxicity against human MKN-45 cells assessed as reduction in cell growth incubated for 48 hrs by MTT assay; settings: MKN-45, 48 h
[6] = molecular target: T1, E3 ubiquitin-protein ligase Mdm2
PC-3 [7] = test: Antiproliferative activity against human PC-3 cells assessed as reduction in cell viability incubated for 24 hrs by Celltiter-Glo assay; settings: PC-3, 24 h
[8] = Antiproliferative activity against human RWPE-1 cells assessed as reduction in cell viability incubated for 24 hrs by Celltiter-Glo assay
LNCaP [9] = test: Antiproliferative activity against human LNCaP cells assessed as reduction in cell viability incubated for 24 hrs by Celltiter-Glo assay
DU-145 [10] = test: Antiproliferative activity against human DU-145 cells assessed as reduction in cell viability incubated for 24 hrs by Celltiter-Glo assay; settings: DU-145, 24 h
HCT-116 [11] = test: Antiproliferative activity against human HCT-116 cells assessed as reduction in cell viability measured for 48 hrs by MTT assay; settings: HCT-116, 48 h
OCI-AML-3 = test: Antiproliferative activity against human OCI-AML-3 cells assessed as reduction in cell viability measured for 48 hrs by MTT assay; settings: OCI-AML-3, 48 h
A549 = test: Antiproliferative activity against human A549 cells assessed as reduction in cell viability measured for 48 hrs by MTT assay; settings: A549, 48 h
MCF7 [12] = test: Antiproliferative activity against human MCF7 cells assessed as reduction in cell viability measured for 48 hrs by MTT assay; settings: MCF7, 48 h
Protein Mdm4 [13] = molecular target: T2, Protein Mdm4 (Homo sapiens, UniProt O15151); test: Inhibition of MDMX (unknown origin)
T2 sequence (O15151 whole entry): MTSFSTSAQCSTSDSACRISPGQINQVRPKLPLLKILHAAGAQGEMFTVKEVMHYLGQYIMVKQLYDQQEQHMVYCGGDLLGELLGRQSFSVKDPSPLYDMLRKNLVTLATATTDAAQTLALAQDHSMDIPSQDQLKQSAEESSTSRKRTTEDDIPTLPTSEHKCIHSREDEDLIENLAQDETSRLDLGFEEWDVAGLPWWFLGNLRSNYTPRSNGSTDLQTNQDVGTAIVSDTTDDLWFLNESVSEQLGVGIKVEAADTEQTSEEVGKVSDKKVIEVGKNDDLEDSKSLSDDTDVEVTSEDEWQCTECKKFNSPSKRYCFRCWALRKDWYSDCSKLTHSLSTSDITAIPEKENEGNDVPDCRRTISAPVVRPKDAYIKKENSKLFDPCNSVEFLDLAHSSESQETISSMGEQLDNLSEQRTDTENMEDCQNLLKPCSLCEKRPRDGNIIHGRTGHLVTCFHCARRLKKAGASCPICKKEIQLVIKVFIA

OCI-AML2 = test: Antiproliferative activity against human OCI-AML2 cells assessed as reduction in cell viability incubated for 24 hrs by Celltiter-Glo assay; settings: OCI-AML2, 24 h
HL-60 = test: Antiproliferative activity against human HL-60 cells assessed as reduction in cell viability incubated for 24 hrs by Celltiter-Glo assay; settings: HL-60, 24 h
MCF7 [14] = test: Antiproliferative activity against human MCF7 cells assessed as reduction in cell viability incubated for 24 hrs by Celltiter-Glo assay; settings: MCF7, 24 h
HCT-116 [15] = test: Antiproliferative activity against human HCT-116 cells assessed as reduction in cell viability incubated for 24 hrs by Celltiter-Glo assay; settings: HCT-116, 24 h
Protein Mdm4 [16] = molecular target: T2, Protein Mdm4; test: Binding affinity to MDMX (unknown origin) assessed as inhibition constant
[17] = molecular target: T1, E3 ubiquitin-protein ligase Mdm2; test: Binding affinity to MDM2 (unknown origin) assessed as inhibition constant
[18] = Antiproliferative activity against human IMR-90 cells assessed as reduction in cell viability incubated for 24 hrs by Celltiter-Glo assay
[19] = Cytotoxicity against human Triple-negative breast cancer cell; settings: Breast carcinoma cell
Breast cancer cell line = test: Cytotoxicity against human Breast cancer cell line
[20] = molecular target: T1, E3 ubiquitin-protein ligase Mdm2; test: Binding affinity to MDM2 (unknown origin) assessed as dissociation constant
[21] = Antiproliferative activity against human U373 MG cells assessed as reduction in cell growth incubated for 72 hrs by MTS assay
U-87 MG = test: Antiproliferative activity against human U-87 MG cells assessed as reduction in cell growth incubated for 72 hrs by MTS assay
T98G = test: Antiproliferative activity against human T98G cells assessed as reduction in cell growth incubated for 72 hrs by MTS assay
[22] = Antiproliferative activity against human C20/A4 cells assessed as reduction in cell growth incubated for 72 hrs by MTS assay
MCF7 [23] = test: Antiproliferative activity against human MCF7 cells assessed as reduction in cell growth incubated for 72 hrs by MTS assay; settings: MCF7, 72 h
Protein Mdm4 [24] = molecular target: T2, Protein Mdm4
PC-3 [25] = test: Antiproliferative activity against human PC-3 cells assessed as reduction in cell growth
LNCaP [26] = test: Antiproliferative activity against human LNCaP cells assessed as reduction in cell growth
LNCaP C4-2 = test: Antiproliferative activity against human C4-2 cells assessed as reduction in cell growth
HCT-116 [27] = test: Antiproliferative activity against human HCT-116 cells assessed as reduction in cell growth by MTT assay
DU-145 [28] = test: Antiproliferative activity against human DU-145 cells assessed as reduction in cell growth
RKO = test: Antiproliferative activity against human RKO cells assessed as reduction in cell growth
SW480 = test: Antiproliferative activity against human SW480 cells assessed as reduction in cell growth
MCF7 [29] = test: Antiproliferative activity against human MCF7 cells assessed as reduction in cell growth
MDA-MB-435 = test: Antiproliferative activity against human MDA-MB-435 cells assessed as reduction in cell growth
LAPC4 = test: Antiproliferative activity against human LAPC4 cells assessed as reduction in cell growth

T1 sequence (Q00987 whole entry): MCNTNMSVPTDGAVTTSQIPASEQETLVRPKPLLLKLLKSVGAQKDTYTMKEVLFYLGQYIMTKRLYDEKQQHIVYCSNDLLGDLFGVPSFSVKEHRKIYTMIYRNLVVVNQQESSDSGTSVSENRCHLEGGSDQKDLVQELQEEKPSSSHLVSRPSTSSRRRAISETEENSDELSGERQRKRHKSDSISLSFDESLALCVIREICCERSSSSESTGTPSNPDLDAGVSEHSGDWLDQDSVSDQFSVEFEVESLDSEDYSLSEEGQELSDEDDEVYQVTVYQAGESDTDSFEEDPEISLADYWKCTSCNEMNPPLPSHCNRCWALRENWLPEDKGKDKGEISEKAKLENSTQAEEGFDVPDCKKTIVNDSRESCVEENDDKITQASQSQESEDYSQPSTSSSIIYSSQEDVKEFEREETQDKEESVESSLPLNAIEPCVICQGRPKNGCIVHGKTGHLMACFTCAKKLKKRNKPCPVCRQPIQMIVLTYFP

COc1cccc2c1NCC2C(=O)N[C@H]1CCN(c2ccc(C)cc2)C1 (stereo not given in full)
pIC50 [1]: < 4.30

CN(C)C1CCN(C(=O)CCC(=O)C(c2ccc(Cl)cc2)C(C(=O)c2ccc(Cl)cc2)c2ccc(F)cc2Cl)CC1 (stereo not given)
pIC50 [2]: 4.74
pIC50 (HCT-116 [3]): 6.15
pIC50 (SH-SY5Y): 6.30
pIC50 (L02): 4.80
pIC50 (SJSA-1): 6.22

Cc1c2ccccc2c(CSC(=N)N)c2ccccc12
pIC50 [4]: 5.92
pIC50 (BT-549): 5.82
pIC50 (ZR-75-1): 5.82
pIC50 (MCF7 [5]): 5.82
pIC50 (BGC-823): 5.92
pIC50 (Prostatic carcinoma cell): 5.82
pIC50 (BT-474): 5.82
pIC50 (SGC-7901): 5.92
pIC50 (ZR-75-30): 5.82
pIC50 (MDA-MB-175-VII): 5.82
pIC50 (Hs-578T): 5.82
pIC50 (HGC-27): 5.92
pIC50 (NCI-N87): 5.92
pIC50 (MKN-45): 5.92

Ac-ETFLDLWKLELEN-NH2
pKd [6]: 3.83

COC(C)(C)CCC[C@](C)(O)[C@H]1CC[C@]2(C)[C@@H]1[C@H](O)C[C@@H]1[C@@]3(C)CC[C@H](O)C(C)(C)[C@@H]3CC[C@]12C
pIC50 (PC-3 [7]): 5.36
IC50 at 24 h [8]: > 50 µM
pIC50 (LNCaP [9]): 5.02
pIC50 (DU-145 [10]): 5.12

N#Cc1c2ccc(N)cc2nc2cc(N)ccc12
pIC50 (HCT-116 [11]): 5.55
pIC50 (OCI-AML-3): 5.89
pIC50 (A549): 5.28
pIC50 (MCF7 [12]): 5.37

CC(C)C(=O)Nc1ccccc1SC(=O)C(C)C
pIC50 (HCT-116 [11]): 4.80
pIC50 [1]: 4.88
pIC50 (Protein Mdm4 [13]): 5.82
pIC50 (OCI-AML-3): 4.74
pIC50 (A549): < 4.52
pIC50 (MCF7 [12]): 4.74

O=c1cc(-c2ccc(Oc3c(O)cc4oc(-c5ccc(O)cc5)cc(=O)c4c3O)cc2)oc2cc(O)cc(O)c12 [HINOKIFLAVONE]
pIC50 (OCI-AML2): 5.31
pIC50 (HL-60): 4.96
pIC50 (MCF7 [14]): 4.79
pIC50 (HCT-116 [15]): 4.85
pKi (Protein Mdm4 [16]): 4.92
pKi [17]: 4.89

C=C1C(=O)O[C@H]2C[C@H](C)[C@@]34C[C@]5(C(=O)OC6CC(C)=C([C@H](C)CCCOC(C)=O)[C@@H](O)C65)[C@@H](C(C)=C3C[C@H]12)C4OC(C)=O (stereo not given in full)
pIC50 (PC-3 [7]): 5.89
IC50 at 24 h [18]: > 50 µM
pIC50 (LNCaP [9]): 5.77
pIC50 (DU-145 [10]): 5.40

Brc1c2ccccc2c(C[P+](c2ccccc2)(c2ccccc2)c2ccccc2)c2ccccc12
pIC50 [19]: 5.43
pIC50 (Breast cancer cell line): 5.43

C[C@@H](c1ccc(Cl)cc1Cl)n1cnc(-c2ccccc2)c1-c1c(C(=O)Nc2cc(C(=O)O)ccc2N2CCC(N3CCCOC3=O)CC2)[nH]c2cc(Cl)ccc12
pKd [20]: > 10.00

Cc1ccnc(NC(c2cccc(Cl)c2Cl)c2ccc3cccnc3c2O)c1 (stereo not given)
pIC50 (HCT-116 [15]): 6.22

Cc1c(Cl)ccc2c(/C=C3\NC(=O)N(Cc4ccc(F)c(F)c4)C3=O)c[nH]c12
pIC50 [21]: 6.00
pIC50 (U-87 MG): 5.85
pIC50 (T98G): < 5.00
IC50 at 72 h [22]: 4.5 µM
pIC50 (MCF7 [23]): 5.72

Ac-ETFLDLWRLLLQN-NH2
pKd (Protein Mdm4 [24]): 3.96

Cc1c(Cl)ccc2c(/C=C3\NC(=O)N(C(C(=O)NC(CO)CO)c4ccc(F)c(F)c4)C3=O)c[nH]c12 (stereo not given)
pIC50 (PC-3 [25]): 4.34
pIC50 (LNCaP [26]): 5.96
pIC50 (LNCaP C4-2): 5.77
pIC50 (HCT-116 [27]): 5.52
pIC50 (DU-145 [28]): 4.34
pIC50 (RKO): 5.49
pIC50 (SW480): < 4.30
pIC50 (MCF7 [29]): 5.46
pIC50 (MDA-MB-435): 4.60
pIC50 (LAPC4): 5.92

O=C(CCC(=O)N1CCNCC1)C(c1ccc(Cl)cc1)C(C(=O)c1ccc(Cl)cc1)c1ccc(F)cc1Cl (stereo not given)
pIC50 [2]: 4.79
pIC50 (HCT-116 [3]): 6.15
pIC50 (SH-SY5Y): 6.15
pIC50 (L02): 4.90
pIC50 (SJSA-1): 6.22
